In patent publication US9994554B2, “Barbiturate and thiobarbiturate compounds for use in cancer therapy” (NUHOPE, LLC, priority 2011, dated 2018):
“And” between values parts separate entries of the source, which are not always exact repeats. Equal entries are not always repeated.

What was measured:
[1] = test system: SW1088; assay: Cytotoxicity (MTS or SRB assay), SW1088; format: cell-based, human
Protocol: Human glioma cells were ordered from American Type Culture Collection (ATCC, Manassas, Va.), and maintained in DMEM with 4×10^−3M L-glutamine, 100 U/ml penicillin, 100 μg/ml streptomycin, and 10% fetal bovine serum (FBS). All experiments were performed at 37° C. in 5% CO2 atmosphere under cell culture conditions. […] Then cells received different dosages of γ-radiation from a ^60Co source GammaCell 220 (Nordion International Inc, Ontario, Canada) or chemotherapeutic agents for another 2-6 days. Cell cytotoxicity assay was determined by MTS [3-(4,5-dimethylthiazol-2-yl)-5-(3-carboxymethoxyphenyl)-2-(4-sulfophenyl)-2H-tetrazolium, inner salt] Cell Proliferation Assay (Promega, Madison, Wis.) or sulforhodamine B (SRB) assay at the end of the exposure period (47, 48).

[2] = test system: Human Astrocyte (Normal cells); assay: Cytotoxicity, normal human astrocytes; format: cell-based
Protocol: The human astrocyte cells were cultured from brains of deceased amyotrophic lateral sclerosis (ALS) patients (Uniform Anatomic Gift Act of 1987). The cerebrum was isolated from the other brain regions and meninges and placed in calcium and magnesium-free Hank's buffered salt solution (CMF-HBSS). The cerebrum was diced, incubated with trypsin/EDTA (Gibco BRL, Grand Island, N.Y.) and triturated with DNase. Tissue was passed through a 135 μm Nitex screen (SEFAR America, Depew, N.Y.), washed twice with CMF-HBSS, re-suspended in media (DMEM/10% FBS, 7.5 mM glucose, 4 mM L-glutamine, 1,000 U/mL penicillin, […], 2.5 μg/mL amphotericin B), centrifuged and passed through two sets of 35 μm Nitex screens. Dissociated cells was plated in poly-D-lysine pre-coated 175 cm^2 flasks. The mixed glial cultures were grown for 14 days, and then shaken to dislodge microglia cells and oligodendrocytes that were discarded. The pure astrocytes were attached to the bottom of the flask.

[3] = test system: BREC; assay: Cytotoxicity, bovine retinal endothelial cells; format: cell-based
Protocol: Bovine retinal endothelial cells (BRECs) were isolated and processed according to a previously published procedure (49, 50). In brief, BREC was grown in MCDB-131 media (Sigma, St) supplemented with 10% FBS, 10 ng/mL EGF, 0.2 mg/mL ENDO GRO (VEC Technologies, Inc.), 0.09 mg/ml heparin, and antibiotic/antimycotic (Invitrogen).

[4] = test system: ST88; assay: Cytotoxicity, ST88 neurofibroma cells; format: cell-based, human
Protocol: Cells of established neurofibroma cell lines were plated at a density of 2000-4000 cells per well in 96 well plates under standard cell culture conditions (54) and then exposed to CC-I for 2 days.

[5] = test system: MCF10A; assay: Cytotoxicity, MCF10A; format: cell-based, human; conditions: immortalized, non-transformed mammary epithelial cell line
Protocol: Human glioma cells were ordered from American Type Culture Collection (ATCC, Manassas, Va.), and maintained in DMEM with 4×10^−3M L-glutamine, 100 U/ml penicillin, 100 μg/ml streptomycin, and 10% fetal bovine serum (FBS). All experiments were performed at 37° C. in 5% CO2 atmosphere under cell culture conditions. Prior to γ-radiation or exposure to chemotherapeutic agents, the glioma cells were plated at a density of 156 to 8,000 cells per well in 96 well plates to account for differences in growth rates, and to obtain similar cell densities for the experimental manipulations, and cultured overnight. Then cells received different dosages of γ-radiation from a ^60Co source GammaCell 220 (Nordion International Inc, Ontario, Canada) or chemotherapeutic agents for another 2-6 days. Cell cytotoxicity assay was determined by MTS [3-(4,5-dimethylthiazol-2-yl)-5-(3-carboxymethoxyphenyl)-2-(4-sulfophenyl)-2H-tetrazolium, inner salt] Cell Proliferation Assay (Promega, Madison, Wis.) or sulforhodamine B (SRB) assay at the end of the exposure period (47, 48).

[6] = test system: MCF7; assay: Cytotoxicity, MCF7; format: cell-based; conditions: human breast adenocarcinoma cell line
Protocol: (§1) Human neuroblastoma cell lines were cultured in Dulbecco's Modified Eagle Medium (DMEM)/F12 media. Human glioma cells were ordered from American Type Culture Collection (ATCC, Manassas, Va.), and maintained in DMEM with 4×10^−3M L-glutamine, 100 U/ml penicillin, 100 μg/ml streptomycin, and 10% fetal bovine serum (FBS). All experiments were performed at 37° C. in 5% CO2 atmosphere under cell culture conditions. Prior to γ-radiation or exposure to chemotherapeutic agents, the glioma cells were plated at a density of 156 to 8,000 cells per well in 96 well plates to account for differences in growth rates, and to obtain similar cell densities for the experimental manipulations, and cultured overnight. […] Cell cytotoxicity assay was determined by MTS [3-(4,5-dimethylthiazol-2-yl)-5-(3-carboxymethoxyphenyl)-2-(4-sulfophenyl)-2H-tetrazolium, inner salt] Cell Proliferation Assay (Promega, Madison, Wis.) or sulforhodamine B (SRB) assay at the end of the exposure period (47, 48).

[7] = test system: SVGp12; assay: Cytotoxicity, SVGp12; format: cell-based; conditions: SV40 transformed human astrocyte cell line
Protocol: as §1

[8] = test system: OVCAR-3; assay: Cytotoxicity, ovarian cancer cells; format: cell-based; conditions: human ovarian carcinoma cell line
Protocol: To assess the effect of CC-I on the ovarian cancer cells, the cells were cultured overnight at a density of 5,000 to 10,000 cells per well in 96 well plates. Then the cells were treated with different concentrations of CC-I (Formula IV) or Formula V for another 3-6 days before cytotoxicity assay using MTS or SRB assay. The IC50 or LD50, 50% inhibition or lethal dose, of compounds is also determined using statistical software (GraphPad) as a general indicator of toxicity.

[9] = test system: WT/SH-SY5Y; assay: Cytotoxicity, WT/SH-SY5Y neuroblastoma; format: cell-based; conditions: wild type HFE transfected human neuroblastoma SH-SY5Y
Protocol: as §1

[10] = test system: C282Y/SH-SY5Y; assay: cells; format: cell-based; conditions: C282Y HFE transfected human neuroblastoma SH-SY5Y
Protocol: as §1

[11] = test system: CCF-STTG1 cell tumors; assay: Athymic nude mouse subcutaneous glioma tumor model; conditions: 25 mg/kg i.p. once a week for 7 weeks
Protocol: The efficacy and toxicity of CC-I was tested in vivo using the athymic nude mouse subcutaneous tumor model. Ten million cells of the Temodar®-sensitive (SW1088) or Temodar®-resistant (CCF-STTG1) malignant glioma cell lines were injected into the flank of one-month-old, female athymic nude mice. When the tumor reached 32 mm^3 in size (week I on graph), CC-I (25 mg/kg) was injected intraperitoneally once a week for 7 weeks.

[12] = test system: U87-MG or CCF-STTG1 glioma cells; assay: Intracranial orthotopic xenograft brain tumor model; conditions: 25 mg/kg i.p. once a week for 7 weeks
Protocol: The effect of CC-I in an intracranial, orthotopic xenograft brain tumor model was analysed. The caudate putamen region of female, athymic nude mice was injected with 10^6 human U87-MG (Temodar®-sensitive) or CCF-STTG1 (Temodar®-resistant) glioma cells in a volume of 10 μl. At one week post-injection, tumor volume was measured using Ti weighted MRI contrast (7T MR imaging system). Thereafter, CC-I was injected intraperitoneally, once a week for 7 weeks at a concentration of 25 mg/kg body weight. Tumor size was measured weekly. […] Liver and kidney toxicity (total bilirubin, blood urea nitrogen (BUN), creatine, aspartate aminotransferase (SGOT/AST), alanine aminotransferase (SGPT/ALT), and alkaline phosphatase) were also determined using an automated chemistry analyzer machine (Roche Cobase MIRA) and kits manufactured by Thermo Electron.

[13] = molecular target: topoisomerase IIα (Homo sapiens, UniProt P11388); assay: kDNA decatenation assay; format: biochemical
topoisomerase IIα, sequence (P11388 whole entry): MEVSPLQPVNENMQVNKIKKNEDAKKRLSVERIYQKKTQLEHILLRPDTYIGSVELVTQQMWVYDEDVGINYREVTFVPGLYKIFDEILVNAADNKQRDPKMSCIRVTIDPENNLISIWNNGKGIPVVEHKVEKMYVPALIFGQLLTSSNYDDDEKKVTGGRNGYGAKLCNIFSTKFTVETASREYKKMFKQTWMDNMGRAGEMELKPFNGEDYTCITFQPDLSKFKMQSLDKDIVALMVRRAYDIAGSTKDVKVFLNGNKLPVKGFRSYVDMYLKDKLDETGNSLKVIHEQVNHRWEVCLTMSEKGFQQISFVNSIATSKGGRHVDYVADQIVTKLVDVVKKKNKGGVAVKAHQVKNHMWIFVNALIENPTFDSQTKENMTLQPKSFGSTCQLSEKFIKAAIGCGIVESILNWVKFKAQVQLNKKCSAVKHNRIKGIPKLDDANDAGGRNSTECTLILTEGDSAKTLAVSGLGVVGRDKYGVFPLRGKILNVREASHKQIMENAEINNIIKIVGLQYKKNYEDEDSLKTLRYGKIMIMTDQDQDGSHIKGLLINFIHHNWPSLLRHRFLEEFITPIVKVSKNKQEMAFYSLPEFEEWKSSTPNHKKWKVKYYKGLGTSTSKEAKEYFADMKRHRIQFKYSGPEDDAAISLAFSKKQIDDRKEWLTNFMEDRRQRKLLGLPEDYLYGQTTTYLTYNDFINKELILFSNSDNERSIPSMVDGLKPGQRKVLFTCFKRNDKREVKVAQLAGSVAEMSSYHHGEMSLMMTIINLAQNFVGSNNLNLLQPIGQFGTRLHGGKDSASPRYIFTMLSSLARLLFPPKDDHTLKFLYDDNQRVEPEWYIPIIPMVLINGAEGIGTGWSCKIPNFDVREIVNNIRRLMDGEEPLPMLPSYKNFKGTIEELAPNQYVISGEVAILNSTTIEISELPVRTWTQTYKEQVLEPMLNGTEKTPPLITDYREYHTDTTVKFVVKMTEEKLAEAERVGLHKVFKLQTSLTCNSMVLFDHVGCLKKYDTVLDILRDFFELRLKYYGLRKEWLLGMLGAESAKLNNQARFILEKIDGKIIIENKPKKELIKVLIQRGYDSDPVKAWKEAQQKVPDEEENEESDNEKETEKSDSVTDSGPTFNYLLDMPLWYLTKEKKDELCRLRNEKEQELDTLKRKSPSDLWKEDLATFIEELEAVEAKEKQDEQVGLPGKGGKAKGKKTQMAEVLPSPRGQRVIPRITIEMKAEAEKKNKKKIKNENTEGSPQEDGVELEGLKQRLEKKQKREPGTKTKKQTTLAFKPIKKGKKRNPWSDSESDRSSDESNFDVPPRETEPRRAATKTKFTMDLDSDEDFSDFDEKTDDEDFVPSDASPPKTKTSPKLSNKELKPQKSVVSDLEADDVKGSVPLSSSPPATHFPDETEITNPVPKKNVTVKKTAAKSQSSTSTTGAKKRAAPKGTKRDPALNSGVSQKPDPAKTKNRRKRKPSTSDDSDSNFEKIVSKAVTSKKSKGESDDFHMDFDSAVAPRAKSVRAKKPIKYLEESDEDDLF
Description: To assess whether CC-I is a human topoisomerase IIα inhibitor, we determined the ability of CC-I to inhibit topoisomerase IIα activity using a kDNA decatenation assay.

[14] = molecular target: human topoisomerase I (Homo sapiens, UniProt P11387); assay: Supercoiled pBR322 DNA relaxation assay; format: biochemical; conditions: concentrations as high as 50 μg/ml
human topoisomerase I, sequence (P11387 whole entry): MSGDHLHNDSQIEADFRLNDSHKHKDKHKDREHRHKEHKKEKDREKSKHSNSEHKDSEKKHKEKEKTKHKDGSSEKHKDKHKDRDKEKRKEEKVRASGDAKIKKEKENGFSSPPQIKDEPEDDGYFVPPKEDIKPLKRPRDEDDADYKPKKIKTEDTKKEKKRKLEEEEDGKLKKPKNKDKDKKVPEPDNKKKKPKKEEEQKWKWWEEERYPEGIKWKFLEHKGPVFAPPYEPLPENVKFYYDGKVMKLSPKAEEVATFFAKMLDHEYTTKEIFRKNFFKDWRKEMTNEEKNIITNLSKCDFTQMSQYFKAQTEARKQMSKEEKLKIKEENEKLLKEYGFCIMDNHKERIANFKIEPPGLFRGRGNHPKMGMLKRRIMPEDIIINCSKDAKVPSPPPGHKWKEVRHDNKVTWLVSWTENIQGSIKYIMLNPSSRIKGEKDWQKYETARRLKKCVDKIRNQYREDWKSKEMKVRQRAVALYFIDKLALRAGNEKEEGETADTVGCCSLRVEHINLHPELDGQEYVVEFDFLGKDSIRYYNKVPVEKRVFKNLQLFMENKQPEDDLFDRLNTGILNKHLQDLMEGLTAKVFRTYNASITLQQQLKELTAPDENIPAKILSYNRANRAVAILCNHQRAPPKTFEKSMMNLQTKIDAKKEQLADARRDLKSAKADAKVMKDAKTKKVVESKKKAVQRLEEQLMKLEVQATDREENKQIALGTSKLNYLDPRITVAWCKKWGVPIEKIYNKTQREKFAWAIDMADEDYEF
Description: To determine whether CC-I is a specific inhibitor of topoisomerase I or IIα, the ability of CC-I to inhibit topoisomerases I and IIα activity was examined using a supercoiled DNA relaxation assay.

[15] = test system: C282Y HFE variant expressing neuroblastoma SH-SY5Y cells; assay: SCID mouse subcutaneous neuroblastoma tumor model; conditions: 25 mg/kg i.p. once a week for 7 weeks
Protocol: To determine the effect of CC-I on neuroblastoma, an in vivo subcutaneous tumor model in SCID mice was examined. One month old, female SCID mice were injected subcutaneously in the flank region with a Temodar®- and radiation-resistant C282Y HFE variant expressing neuroblastoma SH-SY5Y cells. After the tumor attained a volume of 32 mm^3, CC-I (25 mg/kg) was injected intraperitoneally once a week for 7 weeks.

## CCN1C(=O)C(=C/C=C/c2ccco2)C(=O)NC1=S [CC-I]
[1]; SW-1088 astrocytoma cells
  LD50: ≈ 0.5 μg/ml and ~1.7 μM
[1]; human astrocytoma or glioblastoma cell line, read-out: IC50 (μM) SW1088
  IC50: 1.7 µM
[2]; at concentrations toxic to Temodar-resistant glioma cells
  toxicity to normal human astrocytes: not toxic
[2]; normal cells
  IC50: 16.4 µM
[3]; bovine retinal endothelial cell
  IC50: 46.9 µM
[3]; model for the blood-brain-barrier
  toxicity to bovine retinal endothelial cells (BREC): not toxic
[4]; ST88 neurofibroma cells, 2 days exposure
  LD50: 2.1 µg/mL
[4]; human neurofibroma cell line
  IC50: 7.5 µM
[5]
  IC50: 6.5 µM
[6]
  IC50: 15.6 µM
[7]
  IC50: 4.2 µM
[8]
  IC50: 3.5 µM
[9]
  IC50: 3.3 µM
[10]
  IC50: 1.8 µM
[11]
  body weight of the mice: not affected
  liver or kidney toxicity: No liver or kidney toxicity
[11]; CCF-STTG1 tumors, nude mice
  growth of subcutaneous tumors: completely inhibited
[12]
  body weight of mice: not affected
  liver and kidney toxicity (blood chemistry): no liver or kidney toxicity
  survival of tumor-bearing mice: extended survival
[12]; Temodar-resistant and -sensitive tumors
  intracranial tumor growth: inhibited tumor growth
[13]
  concentration completely inhibiting topoisomerase IIα catalyzed kDNA decatenation: greater than 6 μg/ml
[14]
  effect on topoisomerase I activity: no effect
[15]
  body weight: unaffected
  liver or kidney toxicity: No liver or kidney toxicity
[15]; SCID mice
  tumor growth: completely inhibited tumor growth
